Source: patent publication US20090117205A1, “Quinolone-containing medicinal composition” (Daiichi Pharmaceutical CO., LTD, priority 2004, published 2009)
Converted amounts (≈) assume the structure as drawn. Read-outs that look alike come from different tables or passages of the source.

Assays:
Format in all cases: physicochemical
[1] = Stability test of the lyophilized product produced from drug solution of different pH
From the text: Lyophilized products were produced from the drug solution of different pH according to the evaluation of pH of the drug solution used for the lyophilization (1) to evaluate the stability of the Compound (1).

[2] = Evaluation of the concentration of the drug solution used for the lyophilization (cake formation)
[3] = Solubility of Compound (1) in water with change in pH
Description: Change in solubility with the change in pH of the drug solution of the Compound (1) was measured by the method commonly used in the art.

[4] = lyophilized product from drug solution pH 2.5, 60° C., 1 W
[5] = lyophilized product from drug solution pH 2.5, 60° C., 2 W
[6] = lyophilized product from drug solution pH 2.5, Initial
[7] = lyophilized product from drug solution pH 3.5, 60° C., 1 W
[8] = lyophilized product from drug solution pH 3.5, 60° C., 2 W
[9] = lyophilized product from drug solution pH 3.5, Initial
[10] = lyophilized product from drug solution pH 4.5, 60° C., 1 W
[11] = lyophilized product from drug solution pH 4.5, 60° C., 2 W
[12] = lyophilized product from drug solution pH 4.5, Initial

Stability of the Compound (1) in the lyophilized products ([1]; drug solution at a pH in the range of 2.5 to 4.5): sufficient stability
Appearance [1, 4]: Yellow
Content in relation to Initial amount (%) [1, 4]: 100.8%
Content in relation to Nominal amount (%) [1, 4]: 96.0%
Total amount of related substance (%) [1, 4]: 0.95%
pH [1, 4]: 2.97
Appearance [1, 5]: Yellow
Content in relation to Initial amount (%) [1, 5]: 96.5%
Content in relation to Nominal amount (%) [1, 5]: 91.9%
Total amount of related substance (%) [1, 5]: 1.10%
pH [1, 5]: 3.05
Appearance [1, 6]: Yellow
Content in relation to Initial amount (%) [1, 6]: 100.0%
Content in relation to Nominal amount (%) [1, 6]: 95.3%
Total amount of related substance (%) [1, 6]: 0.92%
pH [1, 6]: 2.89
Appearance [1, 7]: Yellow
Content in relation to Initial amount (%) [1, 7]: 99.4%
Content in relation to Nominal amount (%) [1, 7]: 96.0%
Total amount of related substance (%) [1, 7]: 0.96%
pH [1, 7]: 3.81
Appearance [1, 8]: Yellow
Content in relation to Initial amount (%) [1, 8]: 99.7%
Content in relation to Nominal amount (%) [1, 8]: 96.2%
Total amount of related substance (%) [1, 8]: 1.17%
pH [1, 8]: 3.86
Appearance [1, 9]: Yellow
Content in relation to Initial amount (%) [1, 9]: 100.0%
Content in relation to Nominal amount (%) [1, 9]: 96.5%
Total amount of related substance (%) [1, 9]: 0.93%
pH [1, 9]: 3.73
Appearance [1, 10]: Yellow
Content in relation to Initial amount (%) [1, 10]: 97.8%
Content in relation to Nominal amount (%) [1, 10]: 91.1%
Total amount of related substance (%) [1, 10]: 1.13%
pH [1, 10]: 4.51
Appearance [1, 11]: Yellow
Content in relation to Initial amount (%) [1, 11]: 100.5%
Content in relation to Nominal amount (%) [1, 11]: 93.5%
Total amount of related substance (%) [1, 11]: 1.31%
pH [1, 11]: 4.53
Appearance [1, 12]: Yellow
Content in relation to Initial amount (%) [1, 12]: 100.0%
Content in relation to Nominal amount (%) [1, 12]: 93.1%
Total amount of related substance (%) [1, 12]: 0.93%
pH [1, 12]: 4.47
Cake formation (number of vials with cake formation/number of vials tested) ([2]; drug solution 1.25 mg/mL): 0/5
Cake formation (number of vials with cake formation/number of vials tested) ([2]; drug solution 2.5 mg/mL): 4/5
Cake formation (number of vials with cake formation/number of vials tested) ([2]; drug solution 5 mg/mL): 4/5
Cake formation (number of vials with cake formation/number of vials tested) ([2]; drug solution 10 mg/mL): 5/5
Cake formation (number of vials with cake formation/number of vials tested) ([2]; drug solution 15 mg/mL): 5/5
Cake formation (number of vials with cake formation/number of vials tested) ([2]; drug solution 20 mg/mL): 5/5
solubility at 1 week ([3]; aqueous buffer, 5° C., pH 3.5, after 1 W): ≤ 19.6 mg/mL
solubility at 0 week ([3]; aqueous buffer, 5° C., pH 3.5, immediately after preparation): ≤ 20.1 mg/mL
solubility at 1 week ([3]; aqueous buffer, 5° C., pH 4.0, after 1 W): 19 mg/mL (≈ 47.3 mM)
solubility at 0 week ([3]; aqueous buffer, 5° C., pH 4.0, immediately after preparation): ≤ 20.1 mg/mL
solubility at 1 week ([3]; aqueous buffer, 5° C., pH 4.5, after 1 W): 18.8 mg/mL (≈ 46.8 mM)
solubility at 0 week ([3]; aqueous buffer, 5° C., pH 4.5, immediately after preparation): ≤ 20 mg/mL
solubility at 1 week ([3]; aqueous buffer, 5° C., pH 5.0, after 1 W): 18.4 mg/mL (≈ 45.8 mM)
solubility at 1 week ([3]; aqueous buffer, 5° C., pH 5.5, after 1 W): 5.4 mg/mL (≈ 13.5 mM)
solubility at 1 week ([3]; aqueous buffer, 5° C., pH 6.0, after 1 W): 0.7 mg/mL (≈ 1.74 mM)
solubility at 1 week ([3]; aqueous buffer, 25° C., pH 3.5, after 1 W): ≤ 20.1 mg/mL
solubility at 0 week ([3]; aqueous buffer, 25° C., pH 3.5, immediately after preparation): ≤ 20.1 mg/mL
solubility at 1 week ([3]; aqueous buffer, 25° C., pH 4.0, after 1 W): 19.6 mg/mL (≈ 48.8 mM)
solubility at 0 week ([3]; aqueous buffer, 25° C., pH 4.0, immediately after preparation): ≤ 20.1 mg/mL
solubility at 1 week ([3]; aqueous buffer, 25° C., pH 4.5, after 1 W): 20.1 mg/mL (≈ 50.1 mM)
solubility at 0 week ([3]; aqueous buffer, 25° C., pH 4.5, immediately after preparation): ≤ 20.1 mg/mL
solubility at 1 week ([3]; aqueous buffer, 25° C., pH 5.0, after 1 W): 18.7 mg/mL (≈ 46.6 mM)
solubility at 1 week ([3]; aqueous buffer, 25° C., pH 5.5, after 1 W): 4.8 mg/mL (≈ 12 mM)
solubility at 1 week ([3]; aqueous buffer, 25° C., pH 6.0, after 1 W): 0.7 mg/mL (≈ 1.74 mM)
solubility ([3]; aqueous buffer, pH up to pH 5, read-out: Concentration that can be attained in the solution): ≥ 10 mg/mL
solubility ([3]; pH 4.5, aqueous buffer, pH up to 4.5, read-out: Concentration that can be attained in the solution): ≥ 20 mg/mL
SMILES: COc1c(N2CC[C@@H](C3(N)CC3)C2)ccc2c(=O)c(C(=O)O)cn([C@@H]3C[C@@H]3F)c12 [Compound (1), 7-[3-(R)-(1-aminocyclopropyl)pyrrolidine-1-yl]-1-[2-(S)-fluoro-1-(R)-cyclopropyl]-1,4-dihydro-8-methoxy-4-oxoquinoline-3-carboxylic acid]
